Measured values as given in patent US11578043B2, “Salt of delmopinol” (Lundbeck Pharmaceuticals Italy S.p.A., priority 2017, dated 2023).
Structures can show the parent of a compound that is named as a salt.

Key:
[1] = Dynamic Vapour Sorption (DVS) experiments; assay type: physicochemical; details: DVS at 25° C.; for water / moisture absorbed (change in mass) when humidity is increased to 95%: relative humidity from 30% RH up to 95% RH in steps of 10% RH; for hygroscopicity (in words): up to 95% RH, non-hygroscopic = less than 1.5% moisture absorbed at 95% RH
Procedure: The DVS experiments depicted in FIGS. 3 and 4 were performed at 25° C. […] In the present context, a “non-hygroscopic” salt of delmopinol indicates a salt wherein less than 1.5% moisture is absorbed when the salt is exposed to 95% RH at 25° C. for example when determined by Dynamic Vapor Sorption (DVS) according to the method of Example 4. Dynamic Vapour Sorption (DVS) experiments were performed for delmopinol HCl and delmopinol citrate using a SMS DVS Advantage 01 changing the relative humidity from 30% RH up to 95% RH in steps of 10% RH.

[2] = XRPD of the salt before and after DVS (solid state change on exposure to humidity); assay type: physicochemical; details: after DVS experiments at 95% RH
Procedure: The XRPD diffractograms in FIGS. 5 and 6 were obtained using CuKα1 radiation (λ=1.5406 Å). […] The hygroscopicity of delmopinol HCl is reflected in FIG. 4 depicting the DVS diagram obtained at 25° C. by the method described in Example 4. […] These diffractograms were obtained on another instrument.

Row | humidity at which the salt starts absorbing water [1] | water / moisture absorbed (change in mass) when humidity is increased to 95% [1] | hygroscopicity (in words) [1] | change of solid state caused by exposure to humidity (XRPD after DVS vs non-exposed material) [2] | Compound
1 | below 50 % humidity | about 45% | very hygroscopic | irreversible | CCCC(CCC)CCCC1COCCN1CCO (stereo not drawn) [delmopinol HCl, 2-(3-(4-propylheptyl)morpholino)ethan-1-ol]
2 |  | less than 1.5% | non-hygroscopic |  | CCCC(CCC)CCCC1COCCN1CCO.O=C(O)CC(O)(CC(=O)O)C(=O)O (stereo not drawn) [delmopinol citrate, 2-(3-(4-propylheptyl)morpholino)ethan-1-ol]
